How the values were obtained:
Bmi-1 protein = experiment: Sandwich ELISA Assay (Bmi-1 protein level in HT-1080 cells); format: cell-based
Outline: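 HT-1080 cells were treated with compounds (0.5% DMSO final) for 40-48 h at 37 °C. Lysates were assayed by sandwich ELISA: mouse anti-Bmi-1 capture, rabbit anti-Bmi-1 and HRP anti-rabbit detection, TMB read at OD450 (OD570 reference). Levels were quantified against a recombinant GST-Bmi-1 standard curve (125-8000 pg/mL).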

| SMILES | EC50 (Bmi-1 protein) | melting point |
| --- | --- | --- |
| Cc1ccc(Nc2nc(N)cc(-n3c(C)nc4ccc(F)cc43)n2)cc1 [Cpd 134, 6-(6-fluoro-2-methyl-1H-benzimidazol-1-yl)-N^2-(4-methylphenyl)pyrimidine-2,4-diamine] | 1 to 10 nM | 118 to 120 °C |
| Cc1nc2ccc(F)cc2n1-c1cc(N)nc(Nc2ccc(Cl)cc2)n1 [Cpd 135, N^2-(4-chlorophenyl)-6-(6-fluoro-2-methyl-1H-benzimidazol-1-yl)pyrimidine-2,4-diamine] | 10 to 100 nM | 149 to 151 °C |
| Cc1nc2ccc(F)cc2n1-c1cc(N)nc(Nc2ccc(N(C)C)cc2)n1 [Cpd 136, N^2-[4-(dimethylamino)phenyl]-6-(6-fluoro-2-methyl-1H-benzimidazol-1-yl)pyrimidine-2,4-diamine] | 1 to 10 nM | 232 to 235 °C |
| Cc1nc2ccc(F)cc2n1-c1cc(N)nc(Nc2ccc(C#N)cc2)n1 [Cpd 137, 4-{[4-amino-6-(6-fluoro-2-methyl-1H-benzimidazol-1-yl)pyrimidin-2-yl]amino}benzonitrile] | 100 to 3000 nM | 183 to 185 °C |
| Cc1nc2ccc(F)cc2n1-c1cc(N)nc(Nc2cccc(F)c2)n1 [Cpd 138, 6-(6-fluoro-2-methyl-1H-benzimidazol-1-yl)-N^2-(3-fluorophenyl)pyrimidine-2,4-diamine] | 100 to 3000 nM | 239 to 241 °C |
| Cc1cccc(Nc2nc(N)cc(-n3c(C)nc4ccc(F)cc43)n2)c1 [Cpd 139, 6-(6-fluoro-2-methyl-1H-benzimidazol-1-yl)-N^2-(3-methylphenyl)pyrimidine-2,4-diamine] | 100 to 3000 nM | 156 to 158 °C |
| COc1cccc(Nc2nc(N)cc(-n3c(C)nc4ccc(F)cc43)n2)c1 [Cpd 140, 6-(6-fluoro-2-methyl-1H-benzimidazol-1-yl)-N^2-(3-methoxyphenyl)pyrimidine-2,4-diamine] | 100 to 3000 nM | 127 to 129 °C |
| Cc1nc2ccc(F)cc2n1-c1cc(N)nc(Nc2cccc(Cl)c2)n1 [Cpd 141, N^2-(3-chlorophenyl)-6-(6-fluoro-2-methyl-1H-benzimidazol-1-yl)pyrimidine-2,4-diamine] | 100 to 3000 nM | 211 to 213 °C |
| COc1ccc(Nc2nc(N)cc(-n3c(C)nc4ccc(F)cc43)n2)cc1F [Cpd 142, N^2-(3-fluoro-4-methoxyphenyl)-6-(6-fluoro-2-methyl-1H-benzimidazol-1-yl)pyrimidine-2,4-diamine] | 1 to 10 nM | 166 to 167 °C |
| Cc1nc2ccc(F)cc2n1-c1cc(N)nc(Nc2ccccc2)n1 [Cpd 143, 6-(6-fluoro-2-methyl-1H-benzimidazol-1-yl)-N^2-phenylpyrimidine-2,4-diamine] | 100 to 3000 nM | 158 to 161 °C |
| COc1ccc(Nc2nc(N)cc(-n3c(C)nc4ccccc43)n2)cc1F [Cpd 148, N^2-(3-fluoro-4-methoxyphenyl)-6-(2-methyl-1H-benzimidazol-1-yl)pyrimidine-2,4-diamine] | 1 to 10 nM | 186 to 187 °C |
| CCc1nc2ccccc2n1-c1cc(N)nc(Nc2ccc(Cl)cc2)n1 [Cpd 150, N^2-(4-chlorophenyl)-6-(2-ethyl-1H-benzimidazol-1-yl)pyrimidine-2,4-diamine] | 1 to 10 nM | 172 to 173 °C |
| CCc1nc2ccccc2n1-c1cc(N)nc(Nc2ccc(OC)cc2)n1 [Cpd 151, 6-(2-ethyl-1H-benzimidazol-1-yl)-N^2-(4-methoxyphenyl)pyrimidine-2,4-diamine] | 1 to 10 nM | 144 to 145 °C |
| CCc1nc2ccccc2n1-c1cc(N)nc(Nc2ccccc2C)n1 [Cpd 152, 6-(2-ethyl-1H-benzimidazol-1-yl)-N^2-(2-methylphenyl)pyrimidine-2,4-diamine] | 100 to 3000 nM | 119 to 120 °C |
| CCc1nc2ccccc2n1-c1cc(N)nc(Nc2ccc3c(c2)OCO3)n1 [Cpd 154, N^2-(1,3-benzodioxol-5-yl)-6-(2-ethyl-1H-benzimidazol-1-yl)pyrimidine-2,4-diamine] | 10 to 100 nM | 119 to 121 °C |
| CCc1nc2ccccc2n1-c1cc(N)nc(Nc2ccc(OC)c(F)c2)n1 [Cpd 155, 6-(2-ethyl-1H-benzimidazol-1-yl)-N^2-(3-fluoro-4-methoxyphenyl)pyrimidine-2,4-diamine] | 1 to 10 nM | 104 to 106 °C |
| CCc1nc2ccccc2n1-c1cc(N)nc(Nc2ccc(OC)c(Cl)c2)n1 [Cpd 156, N^2-(3-chloro-4-methoxyphenyl)-6-(2-ethyl-1H-benzimidazol-1-yl)pyrimidine-2,4-diamine] | 10 to 100 nM | 100 to 103 °C |
| COc1ccc(Nc2nc(N)cc(-n3c(C)nc4ccccc43)n2)cn1 [Cpd 157, N^2-(6-methoxypyridin-3-yl)-6-(2-methyl-1H-benzimidazol-1-yl)pyrimidine-2,4-diamine] | 10 to 100 nM | 104 to 106 °C |
| CCc1nc2ccc(F)cc2n1-c1cc(N)nc(Nc2ccc(Cl)cc2)n1 [Cpd 158, N^2-(4-chlorophenyl)-6-(2-ethyl-6-fluoro-1H-benzimidazol-1-yl)pyrimidine-2,4-diamine] | 1 to 10 nM | 185 to 187 °C |
| CCc1nc2ccc(F)cc2n1-c1cc(N)nc(Nc2ccccc2)n1 [Cpd 159, 6-(2-ethyl-6-fluoro-1H-benzimidazol-1-yl)-N^2-phenylpyrimidine-2,4-diamine] | 100 to 3000 nM | 160 to 162 °C |
| CCc1nc2ccc(F)cc2n1-c1cc(N)nc(Nc2ccc(C)cc2)n1 [Cpd 160, 6-(2-ethyl-6-fluoro-1H-benzimidazol-1-yl)-N^2-(4-methylphenyl)pyrimidine-2,4-diamine] | 1 to 10 nM | 187 to 189 °C |
| CCc1nc2ccc(F)cc2n1-c1cc(N)nc(Nc2ccc(OC)cc2)n1 [Cpd 161, 6-(2-ethyl-6-fluoro-1H-benzimidazol-1-yl)-N^2-(4-methoxyphenyl)pyrimidine-2,4-diamine] | 1 to 10 nM | 166 to 168 °C |
| CCc1nc2ccc(F)cc2n1-c1cc(N)nc(Nc2ccc(N(C)C)cc2)n1 [Cpd 162, N^2-[4-(dimethylamino)phenyl]-6-(2-ethyl-6-fluoro-1H-benzimidazol-1-yl)pyrimidine-2,4-diamine] | 10 to 100 nM | 230 to 232 °C |
| CCc1nc2ccc(F)cc2n1-c1cc(N)nc(Nc2cccc(F)c2)n1 [Cpd 163, 6-(2-ethyl-6-fluoro-1H-benzimidazol-1-yl)-N^2-(3-fluorophenyl)pyrimidine-2,4-diamine] | 100 to 3000 nM | 169 to 171 °C |
| CCc1nc2ccc(F)cc2n1-c1cc(N)nc(Nc2cccc(OC)c2)n1 [Cpd 165, 6-(2-ethyl-6-fluoro-1H-benzimidazol-1-yl)-N^2-(3-methoxyphenyl)pyrimidine-2,4-diamine] | 100 to 3000 nM | 133 to 135 °C |
| CCc1nc2ccc(F)cc2n1-c1cc(N)nc(Nc2cccc(C)c2)n1 [Cpd 166, 6-(2-ethyl-6-fluoro-1H-benzimidazol-1-yl)-N^2-(3-methylphenyl)pyrimidine-2,4-diamine] | 100 to 3000 nM | 149 to 150 °C |
| CCc1nc2ccc(F)cc2n1-c1cc(N)nc(Nc2ccc(C#N)cc2)n1 [Cpd 167, 4-{[4-amino-6-(2-ethyl-6-fluoro-1H-benzimidazol-1-yl)pyrimidin-2-yl]amino}benzonitrile] | 100 to 3000 nM | 252 to 255 °C |

— patent US10370371B2, “Substituted pyrimidine Bmi-1 inhibitors” (PTC Therapeutics, Inc., priority 2013, dated 2019)
